Results: PubChem BioAssay AID179 (DTP/NCI, 2004)
pEC50, pIC50: −log10 of the molar value. Activity calls are given as the source filed them.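 How the source made its calls: active means compounds giving half or more protection of infected cells from virus-caused growth loss, again on retest; inactive means the rest.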 Where a SMILES comes first, the peptide text is derived from it.

Tested on: CEM cells HIV-1 protection, formazan growth assay
Test: NCI AIDS Antiviral Assay
Details: for pIC50: measured here: growth of uninfected CEM cells
Method: The ability of compounds to protect human CEM cells from HIV-1 infection is measured as a screen for new compounds capable of inhibiting the HIV virus. Five concentrations of drug were tested on uninfected and infected cells and cell growth was measured using a soluble formazan assay. […] Compounds that provided at least 50% protection were retested. Compounds that provided at least 50% protection on retest were listed as moderately active. Compounds that reproducibly provided 100% protection were listed as confirmed active. […] Note that the inability to provide protection could be due to toxicity.

Structure (SMILES) | pEC50 | pIC50 | outcome
Nc1ncnc2c1ncc(=O)n2C1CC(O)C(CO)O1 (centres undefined) | < 3.70 | < 3.70 | 
O/N=C1/C(=C/c2ccc(Cl)cc2)CCCC1C(NO)c1ccc(Cl)cc1 (centres undefined) | < 4.87 | < 4.87 | 
NC(C(=O)O)/C1=C/CCCCCC1 (centres undefined) | < 3.70 | < 3.70 | 
COCCN1CC(=O)N2Cc3ccccc3CN2C(=O)C1 |  | < 3.70 | inactive
COc1ccc(-n2c(C)nc3ccc(NC(=S)Nc4ccccc4)cc3c2=O)cc1 | < 3.70 | < 3.70 | 
CC1CCc2ccccc2O1 (centres undefined) | < 3.70 | < 3.70 | 
c1cncc(C2N3CCCCC3[C@@H]3c4[nH]c5ccccc5c4CCN23)c1 (some centres undefined) | < 4.01 | < 4.01 | 
O=C(Nc1cccc2ccccc12)N1CCCC(Br)C1 (centres undefined) | < 3.70 | 3.71 | 
Cc1cccc(N=Nc2c(C)nn(C(=O)c3ccccc3)c2C)c1 |  |  | inactive
CC(=O)NC(CC(C)C(C)=O)(C(=O)O)C(=O)O (centres undefined) | < 3.70 | < 3.70 | 
CC(C)C(NC(=O)C(N)CCC(=O)O)C(=O)O (stereo not drawn) (H-Glu-Val-OH; configuration not given here) |  |  | inactive
CCO[Si](C)(OCC)OCC | < 3.70 | < 3.70 | 
COc1ccc(-c2cc(-c3ccccc3)c(C#N)c(=O)n2C2OC(CO)C(O)C(O)C2O)cc1 (centres undefined) | < 4.67 | < 4.67 | 
N/C(=N/O)C(F)(F)C(F)(F)C(F)(F)/C(N)=N\O | < 3.70 | < 3.70 | 
Cc1[nH]c(=O)nc2nc3cc(Cl)cc(Cl)c3c(NC(C)(CO)CO)c12 | < 3.70 | < 3.70 | 
O=C(N/N=C/C=C/c1ccccc1)c1ccccc1Nc1ccccc1C(=O)N/N=C/C=C/c1ccccc1 | < 4.46 | 5.31 | 
O=S1(=O)Cc2nc3ccccc3n2C1c1c(F)cccc1F (centres undefined) | 4.53 | 4.12 | 
COc1c2occc2c(N=Cc2c[nH]c3ccccc23)c2ccc(=O)oc12 | < 4.30 | 4.55 | 
N#Cc1cccc(/C=N/N=C(\N)NO)c1 | < 3.32 | 4.43 | 
CCCCCCCCOCC(COC(=O)CCCCCCC)OC(=O)CCCCCCC (centres undefined) | < 3.82 | 4.43 | 
O=[N+]([O-])c1ccc(/C=[N+](\[O-])CCO)o1 | < 3.70 | 4.51 | 
O=C(O)C1CC2C3C=CC(C3)C2C1 (centres undefined) (tested in a mixture with another compound) | < 4.19 | 4.34 | 

Structure (SMILES) | pEC50 | pIC50 | outcome
Clc1nc(Cl)nc(-c2cccn2-c2ccccc2)n1 | < 3.70 | 3.89 | 
Cc1ccc(Sc2cc([N+](=O)[O-])cc(Sc3ccc(C)cc3)c2Sc2ccc(C)cc2)cc1 | < 5.43 | < 5.43 | 
COC(=O)[C@H]1[C@@H](C(C)C)O[C@@H](C(C)C)O[C@H]1C(F)(F)F | < 3.70 | < 3.70 | 
CC(=O)Nc1cc2c(cc1[N+](=O)[O-])-c1ccccc1C2=O | < 3.70 | < 3.70 | 
CC[C@@]1(C[C@H]2C[C@@]3(C(=O)OC)c4[nH]c5ccccc5c4CCN3C2=S)COC2(CCCCC2)O1 | < 3.70 | < 3.70 | 
O=C1C=Cc2ccccc2/C1=C/c1[nH]c(=O)[nH]c1O | < 3.70 | 4.79 | 
CCN=C(N)CSS(=O)(=O)O | < 3.70 | < 3.70 | 
CC1N=C(SCc2c(F)cccc2Cl)N2C(C)N=C(SCc3c(F)cccc3Cl)N12 (centres undefined) | < 4.69 | < 4.69 | 
CCCc1cc(=O)oc2c3c(c4c(c12)OC(C)(C)[C@@H](O)[C@H]4O)O[C@@H](C)[C@H](C)[C@@H]3O | < 3.70 | 3.87 | 
NCCSSCc1ccccc1CSSCCN |  |  | inactive
CCOC(=O)c1ccn2c(c1)c(C#N)c1nc3ccccc3nc12 | < 4.78 | < 4.78 | 
CCCCCC=C(c1cc(Br)c(O)c(C(=O)O)c1)c1cc(Br)c(O)c(C(=O)O)c1 | < 3.09 | 3.82 | 
O=C1Oc2ccccc2C(=O)/C1=C1/C=C(c2ccccc2)SS1 | < 3.70 | < 3.70 | 
O=C1Oc2ccccc2C(=O)/C1=C/N1C(=O)N/C(=C\c2cccc(O)c2)C1=O | < 3.70 | 3.83 | 
O=C(Nc1cccc(C(F)(F)F)c1)c1cc(Br)cc(Br)c1O | < 3.70 | 5.82 | 
COC(=O)N/N=C(\C(=O)Nc1cccc([N+](=O)[O-])c1)c1nc2ccc([N+](=O)[O-])cc2[nH]c1=O | < 3.83 | < 3.83 | 
Cc1cc(OCC(=O)N/N=C/C(Br)=C/c2ccccc2)nc(SCC(=O)N/N=C/C(Br)=C/c2ccccc2)n1 | < 3.70 | 4.75 | 
CCCOC(=O)Nc1ccc2nc(N(C)C)sc2c1 | < 3.61 | 4.18 | 
CC1(c2ccc(F)cc2)OC(=O)c2c1ccc1ccccc21 (centres undefined) |  |  | inactive
CCOC(=O)c1nc(SC)n(C)c1C(=O)OCC | < 3.70 | < 3.70 | 
O=Cc1cn(CCCCCCCCCCCCn2cc(C=O)c3ccccc32)c2ccccc12 | < 3.70 | 5.92 | 
CC1=C2CCCCCC2(O)OC1=O (centres undefined) | < 3.19 | < 3.19 | 

Structure (SMILES) | pEC50 | pIC50 | outcome
COc1c(OC)c(OC)c2c(c1OC)OC(c1ccc(O)cc1)CC2=O (centres undefined) | < 3.70 | 4.54 | 
O=C(O)c1ccc[n+](CC(=O)c2ccc(O)c(O)c2)c1 | 7.20 | < 3.70 | 
CC(=O)c1ccc(NC(=O)C(=O)Nn2c(=S)[nH]c3ccccc3c2=O)cc1 | < 4.03 | < 4.03 | 
C=C1CCC2(C(C)=O)COC1(C)O2 (centres undefined) |  |  | inactive
CC(C)[Si]1(C(C)C)OCC2OC(N3C(=O)NC(=O)C[C@@H]3C(O)c3ccccc3)CC2O[Si](C(C)C)(C(C)C)O1 (some centres undefined) | < 3.70 | 4.98 | 
Cc1[nH]n(C2=NCCN2)c(=O)c1C | < 3.70 | < 3.70 | 
CCOc1ccccc1N=NC1C(=O)N(C(=O)CC(=O)Nc2ccccc2C)N=C1C (centres undefined) | < 3.70 | < 3.70 | 
CN1C(=O)CN2CCc3ccccc3C2c2cc(Cl)ccc21 (centres undefined) | < 3.70 | 3.89 | 
O=C(O)c1ccccc1C(=O)OC1CC2CCC1C2 (centres undefined) | < 3.70 | < 3.70 | 
CN1CCC2(CC1)C(=O)N(Cc1ccccc1)C(=O)C2c1ccccc1 (centres undefined) | < 3.43 | 3.67 | 
O=[N+]([O-])c1cccc2nc3ccccc3c(NCCCCNc3c4ccccc4nc4cccc([N+](=O)[O-])c34)c12 | < 7.00 | 7.79 | 
CC1CC(C)(C)S(=O)(=O)O1 (centres undefined) | < 3.70 | < 3.70 | 
CC1N(O)C(c2ccccc2)C(c2ccccc2)=[N+]1[O-] (centres undefined) | < 3.70 | < 3.70 | 
Cc1nn2c(=O)c([N+](=O)[O-])c(/C=C/c3ccc(F)cc3)nc2s1 | < 3.70 | 5.28 | 
CCOC(=O)c1cc2c3ccn(Cc4ccccc4)c3c3c(C)[nH]oc3c2n1 | 4.58 | < 3.70 | 
CN1CCN(C)C12C=CC=CC21CC1 |  |  | inactive
c1ccc2c(c1)CCc1c-2n(CCN2CCCCC2)c2ccccc12 | < 3.70 | 4.97 | 
COC(=O)C(CCc1cc(OC)ccc1I)C1=CCC2(CC1)OCCO2 (centres undefined) | < 4.42 | < 4.42 | 
O=[N+]([O-])c1ccc(C2CC(c3ccc(NCc4nc5ccccc5[nH]4)cc3)=NO2)cc1 (centres undefined) | < 5.04 | < 5.04 | 
CC(=O)C[P+](c1ccccc1)(c1ccccc1)c1ccccc1 | < 3.70 | 4.21 | 
CCO/C=N\C1=C(C#N)SC2=N/C(=C\c3ccc(OC)cc3)C(=O)N21 | < 3.70 | < 3.70 | 
O=C(O)CN1CCN(CC(=O)O)CCN(CC(=O)O)CCN(CC(=O)O)CC1 | < 3.70 | < 3.70 | 

Structure (SMILES) | pEC50 | pIC50 | outcome
COc1ccccc1NC(=S)Nc1ccccn1 | < 3.70 | < 3.70 | 
Cc1cc(S(=O)(=O)NC2=NC(c3ccccc3)c3cc(Cl)ccc3N2)c(S)cc1Cl (centres undefined) | < 3.70 | < 3.70 | 
COC(=O)c1sc(=O)n(-c2ccccc2)c1SCc1ccccc1 | < 4.42 | < 4.42 | 
CCOC(=O)c1cc(-c2ccc(Cl)cc2)c([N+](=O)[O-])n1C | < 3.70 | 4.57 | 
COc1cc(C2C(Cl)C(=O)N2NC(=O)c2ccc(NC(C)=O)cc2)cc(OC)c1OC (centres undefined) | < 3.70 | < 3.70 | 
COc1cc2c(cc1OC)C1C3CCCCC3CCN1CC2 (centres undefined) | < 3.70 | 3.86 | 
O=C(NCCCCNCCCNC(=O)c1ccccc1)c1ccccc1 | < 3.70 | < 3.70 | 
Cc1ccc(N2CC(O)CSC2=Nc2ccccc2)cc1 (centres undefined) | < 3.95 | 4.33 | 
CC(=O)OCC12CC(OC(C)=O)C(C)=CC1O[C@@H]1C(O)[C@@H](O)[C@@]2(C)[C@@]12CO2 (some centres undefined) | < 4.18 | 7.55 | 
CCC1CCC2c3c([nH]c4ccc(C)cc34)C3C(=O)N(N(C)C)C(=O)C3C2C1 (centres undefined) | < 3.70 | < 4.00 | 
C(=C(c1ccc(OC2CCCCO2)cc1)c1ccc(OC2CCCCO2)cc1)c1ccccc1 (centres undefined) | < 5.70 | 5.95 | 
O=[As]1(c2ccccc2)c2ccccc2Oc2ccccc21 | < 3.54 | 3.85 | 
COC(=O)c1c(C(=O)OC)c2cc(C(=O)c3ccccc3)ccn2c1Cl | < 4.57 | < 4.57 | 
COc1cc2ccc3c4cc(OC)c(OC(C)C)cc4c[n+](C)c3c2cc1OC | < 3.75 | 3.76 | 
CCOC(=O)c1ccc(N=C2SC(=S)N(c3ccc(F)cc3)C2=Nc2ccc(C(=O)OCC)cc2)cc1 | < 4.70 | 5.17 | 
O=C1C(=Cc2ccc(O)cc2)N=C(c2ccccc2)N1n1c(-c2ccccc2)nc2ccccc2c1=O | < 3.70 | 4.11 | 
NNc1c(Cl)c(=O)n(-c2ccccc2)[nH]c1=O | < 3.70 | < 3.70 | 
C[C@H]1[C@H]2CC[C@H]3[C@@H]4CC(=O)[C@]56C[C@@H]5CC[C@]6(C)[C@H]4CC[C@]23CN1C | < 4.04 | < 4.04 | 
CC[C@H](NC(=O)OC(C)(C)C)C(=O)NCP(=O)(OCc1ccc([N+](=O)[O-])cc1)OCc1ccc([N+](=O)[O-])cc1 | < 3.70 | 4.47 | 
